This assay relates to CD2F1 mice, L1210 leukemia ip, survival T/C. The assay is described as follows: NCI In Vivo Anticancer Drug Screen. Data for tumor model L1210 Leukemia (intraperitoneal) in CD2F1 (CDF1) mice. To be noted: higher = longer survival. The essentials:
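Activity against a transplanted murine tumor was judged by comparing the compound group with a vehicle group. The outcome in the treated animals was divided by that in the controls.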

Where [1] appears, read: endpoint: mean survival time, dose: 100.0 mg/kg/injection, schedule: Q01DX009 (ip), vehicle: saline with Tween-80.
The mark [2] stands for this setting: endpoint: mean survival time, dose: 200.0 mg/kg/injection, schedule: Q01DX009 (ip), vehicle: saline with Tween-80.
The mark [3] stands for this setting: endpoint: mean survival time, dose: 400.0 mg/kg/injection, schedule: Q01DX009 (ip), vehicle: saline with Tween-80.
Where [4] appears, read: endpoint: mean survival time, dose: 25.0 mg/kg/injection, schedule: Q04DX003 (ip), vehicle: saline with Tween-80.
Setting [5] is: endpoint: mean survival time, dose: 100.0 mg/kg/injection, schedule: Q04DX003 (ip), vehicle: saline with Tween-80.
Where [6] appears, read: endpoint: mean survival time, dose: 200.0 mg/kg/injection, schedule: Q04DX003 (ip), vehicle: saline with Tween-80.
[7] abbreviates: endpoint: mean survival time, dose: 400.0 mg/kg/injection, schedule: Q04DX003 (ip), vehicle: saline with Tween-80.

Consider 16 compounds from PubChem BioAssay AID256 (DTP/NCI, 2004).

“And” between values parts separate entries of the source, which are not always exact repeats. Equal entries are not always repeated. Toxic doses and inconclusive results are not listed.

As for `O=c1[nH]c(=S)nc2nc[nH]n12`, the T/C is, setting by setting: (endpoint: mean survival time, dose: 12.5 mg/kg/injection, schedule: Q01DX001 (ip), vehicle: carboxymethylcellulose (CMC)) 97 % of control; (endpoint: mean survival time, dose: 25.0 mg/kg/injection, schedule: Q01DX001 (ip), vehicle: carboxymethylcellulose (CMC)) 100 % of control; (endpoint: mean survival time, dose: 50.0 mg/kg/injection, schedule: Q01DX001 (ip), vehicle: carboxymethylcellulose (CMC)) 104 % of control; (endpoint: mean survival time, dose: 100.0 mg/kg/injection, schedule: Q01DX001 (ip), vehicle: carboxymethylcellulose (CMC)) 97 % of control; (endpoint: mean survival time, dose: 200.0 mg/kg/injection, schedule: Q01DX001 (ip), vehicle: carboxymethylcellulose (CMC)) 97 % of control.
For the compound `N#CC(O)Cc1ccccc1` (stereo not given), the T/C reads like this: (endpoint: mean survival time, dose: 5.0 mg/kg/injection, schedule: Q04DX003 (ip), vehicle: saline) 98 % of control; (endpoint: mean survival time, dose: 10.0 mg/kg/injection, schedule: Q04DX003 (ip), vehicle: saline) 98 % of control.
As for `CCN(CC)CC(=O)Nc1c(Cl)cccc1Cl`, the T/C (endpoint: mean survival time, dose: 100.0 mg/kg/injection, schedule: Q01DX009 (ip), vehicle: saline) was 98 % of control; the T/C (endpoint: mean survival time, dose: 100.0 mg/kg/injection, schedule: Q04DX003 (ip), vehicle: saline) is 104 % of control; the T/C (endpoint: mean survival time, dose: 200.0 mg/kg/injection, schedule: Q01DX009 (ip), vehicle: saline) is 92 % of control; the T/C (endpoint: mean survival time, dose: 200.0 mg/kg/injection, schedule: Q04DX003 (ip), vehicle: saline) is 108 % of control; the T/C (endpoint: mean survival time, dose: 400.0 mg/kg/injection, schedule: Q04DX003 (ip), vehicle: saline) was 102 % of control.
Regarding `OCC1OC(n2cnc3cncnc32)C(O)C1O` (stereo not given), the T/C (endpoint: mean survival time, dose: 0.78 mg/kg/injection, schedule: Q01DX009 (ip), vehicle: saline) is 94 % of control and 102 % of control; the T/C (endpoint: mean survival time, dose: 1.56 mg/kg/injection, schedule: Q01DX009 (ip), vehicle: saline) was 106 % of control and 112 % of control; the T/C (endpoint: mean survival time, dose: 3.12 mg/kg/injection, schedule: Q01DX009 (ip), vehicle: saline) is 103 % of control and 106 % of control; the T/C (endpoint: mean survival time, dose: 6.25 mg/kg/injection, schedule: Q01DX009 (ip), vehicle: saline) is 118 % of control and 89 % of control; the T/C (endpoint: mean survival time, dose: 12.5 mg/kg/injection, schedule: Q01DX009 (ip), vehicle: saline) is 106 % of control; the T/C (endpoint: mean survival time, dose: 25.0 mg/kg/injection, schedule: Q01DX009 (ip), vehicle: saline) was 119 % of control and 101 % of control.
For the compound `O=c1c2cc([N+](=O)[O-])cc3c2-c2c4c(cc([N+](=O)[O-])cc14)c(O)c1cc([N+](=O)[O-])cc(c3=O)c21`, the T/C runs as follows: under setting [1], 103 % of control; under setting [2], 117 % of control; under setting [3], 113 % of control.
In the case of `Cc1c(O)c2c(c(O)c1Cc1ccc(CN)cc1)C(=O)c1ccccc1C2=O`, the T/C by setting is: (endpoint: mean survival time, dose: 1.56 mg/kg/injection, schedule: Q01DX009 (ip), vehicle: water) 103 % of control; (endpoint: mean survival time, dose: 3.13 mg/kg/injection, schedule: Q01DX009 (ip), vehicle: water) 101 % of control; (endpoint: mean survival time, dose: 6.25 mg/kg/injection, schedule: Q01DX009 (ip), vehicle: water) 95 % of control; (endpoint: mean survival time, dose: 12.5 mg/kg/injection, schedule: Q01DX009 (ip), vehicle: water) 103 % of control; (endpoint: mean survival time, dose: 25.0 mg/kg/injection, schedule: Q01DX009 (ip), vehicle: water) 87 % of control.
For the compound `Clc1ccc(N=Nc2ccc(Cl)cc2)cc1`, the T/C reads like this: under setting [4], 95 % of control; (endpoint: mean survival time, dose: 50.0 mg/kg/injection, schedule: Q04DX003 (ip), vehicle: saline with Tween-80) 95 % of control; under setting [5], 92 % of control.
With `CC1(C(=O)O)CC2CCC1CC2` (stereo not given), the T/C is 96 % of control (endpoint: mean survival time, dose: 50.0 mg/kg/injection, schedule: Q04DX002 (ip), vehicle: saline with Tween-80); 107 % of control (endpoint: mean survival time, dose: 100.0 mg/kg/injection, schedule: Q04DX002 (ip), vehicle: saline with Tween-80); 100 % of control (endpoint: mean survival time, dose: 200.0 mg/kg/injection, schedule: Q04DX002 (ip), vehicle: saline with Tween-80); 96 % of control (endpoint: mean survival time, dose: 400.0 mg/kg/injection, schedule: Q04DX002 (ip), vehicle: saline with Tween-80).
With `CN(N)c1nc2c(=O)[nH]c(N)nc2n1C1OC(CO)C(O)C1O` (stereo not given), the T/C (endpoint: mean survival time, dose: 1.56 mg/kg/injection, schedule: Q01DX005 (ip), vehicle: water) is 101 % of control; the T/C (endpoint: mean survival time, dose: 3.12 mg/kg/injection, schedule: Q01DX005 (ip), vehicle: water) was 101 % of control; the T/C (endpoint: mean survival time, dose: 6.25 mg/kg/injection, schedule: Q01DX005 (ip), vehicle: water) is 101 % of control; the T/C (endpoint: mean survival time, dose: 12.5 mg/kg/injection, schedule: Q01DX005 (ip), vehicle: water) is 98 % of control; the T/C (endpoint: mean survival time, dose: 25.0 mg/kg/injection, schedule: Q01DX005 (ip), vehicle: water) was 103 % of control.
In the case of `N#CC(/C=C/c1ccccc1)Nc1ccccc1CO` (stereo not given), the T/C reads like this: under setting [5], 97 % of control; under setting [6], 105 % of control; under setting [7], 117 % of control.
As to `c1ccc(CN2CCNCC2)cc1`, the T/C was 96 % of control (endpoint: mean survival time, dose: 6.25 mg/kg/injection, schedule: Q04DX003 (ip), vehicle: saline with Tween-80); 96 % of control (endpoint: mean survival time, dose: 12.5 mg/kg/injection, schedule: Q04DX003 (ip), vehicle: saline with Tween-80); 101 % of control under setting [4].
As to `CC(C)CCCC(C)C1CCC2C3CCC45CC4C(=O)CCC5(C)C3CCC12C` (stereo not given), the T/C (endpoint: mean survival time, dose: 100.0 mg/kg/injection, schedule: Q04DX003 (ip), vehicle: acetone) is 102 % of control; the T/C under setting [5] is 91 % of control; the T/C (endpoint: mean survival time, dose: 200.0 mg/kg/injection, schedule: Q04DX003 (ip), vehicle: acetone) was 93 % of control; the T/C under setting [6] is 93 % of control; the T/C (endpoint: mean survival time, dose: 400.0 mg/kg/injection, schedule: Q04DX003 (ip), vehicle: acetone) is 89 % of control; the T/C under setting [7] is 95 % of control.
Take `Cc1ccc(C(=O)CCC(=O)O)c(C)c1`: the T/C is 100 % of control under setting [1], 105 % of control under setting [2] and 98 % of control under setting [3].
`CCOP(=O)(OCC)C(c1ccccc1)(c1ccccc1)c1ccccc1`: the T/C runs as follows: (endpoint: mean survival time, dose: 100.0 mg/kg/injection, schedule: Q01DX001 (ip), vehicle: Klucel (hydroxypropylcellulose) (HPC)) 103 % of control; (endpoint: mean survival time, dose: 200.0 mg/kg/injection, schedule: Q01DX001 (ip), vehicle: Klucel (hydroxypropylcellulose) (HPC)) 96 % of control; (endpoint: mean survival time, dose: 400.0 mg/kg/injection, schedule: Q01DX001 (ip), vehicle: Klucel (hydroxypropylcellulose) (HPC)) 102 % of control.
As to `CCCN(CCC)CC(=O)Nc1c(Cl)cccc1Cl`, the T/C was 101 % of control (endpoint: mean survival time, dose: 50.0 mg/kg/injection, schedule: Q01DX009 (ip), vehicle: saline sonified); 96 % of control (endpoint: mean survival time, dose: 100.0 mg/kg/injection, schedule: Q01DX009 (ip), vehicle: saline sonified); 105 % of control under setting [5]; 105 % of control under setting [6].
For `COC(=O)C1(F)C(=O)NC(=O)NC1OC` (stereo not given), the T/C (endpoint: median survival time, dose: 50.0 mg/kg/injection, schedule: Q01DX005 (ip), vehicle: Klucel (hydroxypropylcellulose) (HPC)) is 124 % of control; the T/C (endpoint: median survival time, dose: 50.0 mg/kg/injection, schedule: Q01DX005 (ip), vehicle: saline with Tween-80) was 124 % of control; the T/C (endpoint: median survival time, dose: 50.0 mg/kg/injection, schedule: Q01DX009 (ip), vehicle: Klucel (hydroxypropylcellulose) (HPC)) was 121 % of control; the T/C (endpoint: median survival time, dose: 72.0 mg/kg/injection, schedule: Q01DX009 (ip), vehicle: Klucel (hydroxypropylcellulose) (HPC)) was 153 % of control; the T/C (endpoint: median survival time, dose: 100.0 mg/kg/injection, schedule: Q01DX005 (ip), vehicle: saline with Tween-80) is 156 % of control; the T/C (endpoint: median survival time, dose: 100.0 mg/kg/injection, schedule: Q01DX009 (ip), vehicle: Klucel (hydroxypropylcellulose) (HPC)) is 158 % of control and 176 % of control. Also, the T/C runs as follows: (endpoint: median survival time, dose: 120.0 mg/kg/injection, schedule: Q01DX009 (ip), vehicle: Klucel (hydroxypropylcellulose) (HPC)) 172 % of control; (endpoint: median survival time, dose: 200.0 mg/kg/injection, schedule: Q01DX005 (ip), vehicle: Klucel (hydroxypropylcellulose) (HPC)) 183 % of control; (endpoint: median survival time, dose: 200.0 mg/kg/injection, schedule: Q01DX005 (ip), vehicle: saline with Tween-80) 178 % of control; (endpoint: median survival time, dose: 200.0 mg/kg/injection, schedule: Q01DX009 (ip), vehicle: Klucel (hydroxypropylcellulose) (HPC)) 159 % of control and 197 % of control and 238 % of control; (endpoint: median survival time, dose: 400.0 mg/kg/injection, schedule: Q01DX005 (ip), vehicle: Klucel (hydroxypropylcellulose) (HPC)) 185 % of control; (endpoint: median survival time, dose: 400.0 mg/kg/injection, schedule: Q01DX005 (ip), vehicle: saline with Tween-80) 112 % of control. The T/C (endpoint: median survival time, dose: 800.0 mg/kg/injection, schedule: Q01DX005 (ip), vehicle: Klucel (hydroxypropylcellulose) (HPC)) is 104 % of control; the T/C (endpoint: median survival time, dose: 800.0 mg/kg/injection, schedule: Q01DX005 (ip), vehicle: saline with Tween-80) was 109 % of control; the T/C (endpoint: median survival time, dose: 800.0 mg/kg/injection, schedule: Q01DX009 (ip), vehicle: Klucel (hydroxypropylcellulose) (HPC)) is 108 % of control.
